From patent publication US6949533B2, “6,7-Oxygenated steroids and uses related thereto” (Inflazyme Pharmaceuticals Ltd., priority 1996, dated 2005)
Like-named read-outs stand apart in the source and are kept apart here.

Legend:
[1] = tested on: rabbit platelets; test: PAF-induced aggregation of rabbit platelets; type: cell-based; conditions: Oryctolagus cuniculus, Platelet, read-out: % Inhibition at 80 μM
Source text: Within the present invention, it was discovered that the polyhydroxylated steroids as well as intermediates described in previous sections inhibited the aggregation of platelets caused by platelet activating factor (PAF). PAF is a local mediator of thrombosis and prevention of the formation of blood clots has direct implication in the treatment of thrombosis and associated cardiovascular diseases. The assay system used to evaluate the ability of compounds to inhibit the aggregation of platelets in response to exogenous stimuli is indicative of anti-thrombotic or thrombolytic activity.
Platelets were isolated from rabbit blood and prepared at a density of 2.4×10^8 cells/ml in Tyrodes buffer (pH 7.2) containing Ca^2+. Platelets were incubated with each compound for 5 min at 37° C. prior to stimulation. Platelets were stimulated with 1 nM platelet activating factor (PAF; EC75) in the presence of each of the compounds and aggregation was monitored for 5 min. Compounds were solubilized in dimethylsulfoxide (DMSO) and aggregation was measured as a percentage of the response to 1 nM PAF obtained in the presence of the appropriate concentration of DMSO. The degree of inhibition caused by each sample was calculated using the control response in the presence of DMSO equal to 100%.

[2] = tested on: passively sensitized rat mast cells (RBL-2H3); test: antigen-induced release of hexosaminidase from RBL-2H3 cells; type: cell-based; conditions: for inhibition at 25 µM: Rattus norvegicus
Description: (§1) The anti-allergic effects of various polyhydroxylated steroids of the present invention were evaluated by measuring their effect on antigen-induced secretion of hexosaminidase from a passively sensitized rat mast cell line (RBL-2H3) and a murine mast cell line (MC/9). The ability of agents to inhibit the release of mast cell granule contents, e.g., histamine and hexosaminidase, is indicative of anti-allergy and/or anti-asthma activity.
(§2) Hexosaminidase is released from the mast cell granule along with histamine and other mediators during antigen challenge. RBL-2H3 and MC/9 cells were grown in culture and passively sensitized to dinitrophenol (DNP) using anti-human-DNP (IgE). Cells were incubated with each compound (25 μM) for 1 hour at 37° C. and then stimulated with 0.1 mg/ml DNP-HSA (antigen) for 15 min. Aliquots of the supernatant were removed and used to measure the amount of hexosaminidase released during challenge with the antigen. The amount of hexosaminidase present in the supernatant was determined calorimetrically by monitoring the enzymatic metabolism of p-nitrophenyl-N-acetyl-β-D-glucosaminide (p-NAG) over a period of 1 hour at 410 nm. The effect of each compound was determined as a percentage of the antigen-induced response (minus background release) obtained in the presence of DMSO alone, as set forth in Tables 2 and 3. These values were used to determine the degrees of inhibition of antigen-induced hexosaminidase release from the cells.

[3] = tested on: guinea pig ileum; test: antigen-induced contraction of ileum from sensitized guinea pigs; conditions: Cavia porcellus, read-out: Percentage Inhibition, 30 μM compound, n = 3-4
Description: The ability of compounds to inhibit allergen-induced contraction of ileum from sensitized animals is indicative of antiallergic activity. Sensitized guinea pig ileum is particularly useful in measuring the immediate allergic response.
The guinea pig ileum has been used to evaluate the ability of compounds to inhibit allergan-induced histamine and mediator release causing smooth muscle contraction. Guinea pigs were sensitized by an intraperitoneal injection of 100 mg ovalbumin and an intramuscular injection of 50 mg ovalbumin on day 0, followed by a second intramuscular injection of 50 mg ovalbumin on day 1. […] Segments of ileum were prepared and suspended, with muscle contractions being measured in the longitudinal plane, in Tyrode's buffer at 37° C. and aerated with 5% CO2 in O2. Tissues were suspended under a resting tension of 2 grams and isometric contractions were measured using force-displacement transducers coupled to a polygraph. Tissues were stimulated with 3 μM histamine 3 times to ensure reproducible contractions were obtained. Tissues were then incubated with each compound (30 μM) or 0.15% dimethylsulphoxide (DMSO) as a control, for 20 min, after which time the tissues were challenged with 100 μg/ml ovalbumin. The magnitude of the contraction induced by OA in the presence of each compound was expressed as a percentage of the contraction obtained to 3 μM histamine. The protective effects of the various compounds on OA-induced contraction of guinea pig ileum from sensitized animals are summarized in Table 4.

[4] = tested on: isolated trachea; parameters: species or system guinea pig; conditions: compound 20 μM, study 1
Description: The effects of a number of the compounds described herein on allergen-induced bronchoconstriction were evaluated for anti-asthma activity. The ability of a compound to inhibit allergen-induced decreases in lung function in sensitized guinea pigs in response to antigen-challenge is indicative of anti-asthma activity. In particular, the model system is useful in the evaluation of the potential effects of a compound in the treatment of the early asthmatic reaction (EAR) when severe bronchoconstriction occurs.
Guinea pigs were exposed to a nebulized solution of 1% ovalbumin (OA) in saline for 15 min. […] Tracheal rings were prepared and bathed in Krebs-Henseleit solution at 37° C. and aerated with 5% CO2 in […]. Tissues were suspended under a resting tension of 2 g and isometric contractions were measured using force-displacement transducers coupled to a polygraph. Tissues were incubated with each compound or 0.1% dimethylsulfoxide (as a control) for 20 min, after which increasing concentrations of OA (0.001-100 μg/ml) were added to the tissue. After the final concentration of OA was added and the response was recorded, the tissues were stimulated with 100 μM methacholine which caused maximum contraction of the trachea. The magnitude of the contraction induced by OA in the presence of each compound was expressed as a percentage of the maximum contraction obtained using methacholine (100 μM).

[5] = tested on: sensitized guinea pigs; test: allergen-induced changes in lung resistance and compliance in vivo; parameters: species or system guinea pig; conditions: 5 mg/kg/day for 4 days p.o.
Description: Female Cam Hartley guinea pigs (350-400 g) are sensitized to ovalbumin by exposure of the guinea pigs to a nebulized solution of 1% ovalbumin in saline for 15 minutes. After 10-12 days, the animals are found to be acutely sensitized to the allergen (ovalbumin). Animals are treated by oral gavage, under light halothane anesthesia, with 300 μl polyethyleneglycol-200 (PEG) or 5 mg/Kg of test compound in 300 μl of PEG. Animals are treated once daily for 4 days with the final dose administered 2 hours prior to allergen challenge. Alternatively, compounds were delivered by inhalation, using a Hudson nebulizer driven by 6 psi oxygen, providing a single dose of 50 μg/Kg 20 min prior to challenge.
An animal is anaesthetized using ketamine ([…]; i.p.) and xylazine (10 mg/Kg; i.p.) and 1% halothane during the surgical procedure. A tracheostomy is performed and a water-filled esophageal cannula is inserted prior to positioning the animal in a body plethysmograph. The tracheal cannula is attached to a fixed tracheal cannula in the plethysmograph. Cardiac function is monitored using electrocardiography. The animal is paralyzed using pancuronium bromide (0.8 mg/Kg; i.m.) and ventilated with 3 ml tidal breaths using a Harvard small animal ventilator, at a frequency of 60 breaths per minute. Pulmonary resistance and dynamic lung compliance data are obtained from volume, flow and transpulmonary pressure signals using multipoint analysis.
Pulmonary function is continually monitored throughout the experiment and measurements of lung resistance and lung compliance are made at various time-points (e.g., 0, 1, 2, 3, 4, 5, 10, 20 and 30 min) following antigen challenge. Data is collected on a computer-linked physiological measurement system using DIREC Physiological recording software and analyzed using ANADAT software designed for lung mechanics measurements. This software was obtained from RHT-InfoDat Inc., Montreal, Quebec, Canada.
Once baseline resistance and compliance measurements are obtained, the animal is challenged with 6 breaths of saline. After 10 minutes, during which time no alterations in lung function should occur, the animal is challenged with 6 breaths of 2 or 3% ovalbumin in saline (as the antigen stimulus). Saline and antigen are delivered in each breath using a Hudson nebulizer.

[6] = tested on: mouse mast cells (MC/9); test: antigen-induced release of hexosaminidase from MC/9 cells; type: cell-based; conditions: for inhibition at 25 µM: Mus musculus, MC9, 25 μM compound, read-out: Percentage Inhibition (mean) MC/9 cells
Description: as §1, §2

[7] = tested on: NF-κB; test: NF-κB gel shift binding assay in TPA-stimulated RBL-2H3 cells; type: cell-based; conditions: Rattus norvegicus, compound 1 μM, 2 hours preincubation, read-out: Percent Inhibition of Response to TPA (0.1 μM)
[8] = RBL-2H3, read-out: Percentage Inhibition (mean) RBL-2H3 Cells
[9] = RBL-2H3, 25 μM compound, antigen-induced hexosaminidase release, read-out: Percentage Inhibition (mean) RBL-2H3 Cells

CC1(C)O[C@@H]2C3=CC(=O)CC[C@]3(C)C3CC[C@]4(C)C(=O)CCC4C3[C@H]2O1 (stereo partly drawn) [Compound 8]
inhibition at 80 µM ([1]; 80 μM compound, 5 min preincubation, PAF-stimulated rabbit platelets (title: 0.1 nM PAF)): 11.6%

C[C@]12CCC(=O)C=C1[C@@H](O)[C@H](O)C1C2CC[C@]2(C)C(=O)CCC12 (stereo partly drawn) [Compound 7]
inhibition at 80 µM [1]: 12.3%
inhibition at 25 µM [2, 8]: 21.7%
inhibition at 30 µM [3]: 54%

CC1(C)O[C@@H]2C3C(CC[C@@]4(C)C3CC[C@@H]4O[Si](C)(C)C(C)(C)C)[C@@]3(C)CC[C@H](O)[C@@H](O)C3[C@H]2O1 (stereo partly drawn) [Compound 236]
inhibition at 80 µM [1]: 100%
inhibition at 25 µM [2, 8]: 31%
percentage contraction compared to 100 μM methacholine ([4]; OA 0.01 μg/ml): 5.6%
percentage contraction compared to 100 μM methacholine ([4]; OA 0.03 μg/ml): 5.6%
percentage contraction compared to 100 μM methacholine ([4]; OA 10.0 μg/ml): 39%

CC[C@H]1CCC2C3C(CC[C@@]21C)[C@@]1(C)CC[C@@H](O)CC1[C@@H](O)[C@@H]3O (stereo partly drawn) [Compound 339]
Lung Compliance ([5]; 1 min after challenge): 0.172 ± 0.027 ml/cm H2O
Lung Resistance ([5]; 1 min after challenge): 0.326 ± 0.041 cm H2O/ml/sec
Lung Compliance ([5]; 2 min after challenge): 0.088 ± 0.018 ml/cm H2O
Lung Resistance ([5]; 2 min after challenge): 0.522 ± 0.187 cm H2O/ml/sec
Lung Compliance ([5]; 3 min after challenge): 0.060 ± 0.017 ml/cm H2O
Lung Resistance ([5]; 3 min after challenge): 1.102 ± 0.047 cm H2O/ml/sec
Lung Compliance ([5]; 4 min after challenge): 0.050 ± 0.013 ml/cm H2O
Lung Resistance ([5]; 4 min after challenge): 0.996 ± 0.380 cm H2O/ml/sec
Lung Compliance ([5]; 5 min after challenge): 0.051 ± 0.011 ml/cm H2O
Lung Resistance ([5]; 5 min after challenge): 1.014 ± 0.413 cm H2O/ml/sec
Lung Compliance ([5]; 10 min after challenge): 0.084 ± 0.012 ml/cm H2O
Lung Resistance ([5]; 10 min after challenge): 0.440 ± 0.099 cm H2O/ml/sec
Lung Compliance ([5]; 20 min after challenge): 0.123 ± 0.015 ml/cm H2O
Lung Resistance ([5]; 20 min after challenge): 0.296 ± 0.031 cm H2O/ml/sec
Lung Compliance ([5]; 30 min after challenge): 0.150 ± 0.012 ml/cm H2O
Lung Resistance ([5]; 30 min after challenge): 0.291 ± 0.037 cm H2O/ml/sec
Lung Compliance ([5]; Baseline): 0.463 ± 0.026 ml/cm H2O
Lung Resistance ([5]; Baseline): 0.249 ± 0.017 cm H2O/ml/sec
Lung Compliance ([5]; OA/10 s): 0.442 ± 0.025 ml/cm H2O
Lung Resistance ([5]; OA/10 s): 0.239 ± 0.013 cm H2O/ml/sec
Percentage Inhibition (mean) MC/9 cells ([6]; 25 μM compound, 25 µM): 55%
inhibition at 25 µM [6]: 67%
Percentage Inhibition (mean) RBL-2H3 Cells ([2]; 25 μM compound, antigen-induced hexosaminidase release, 25 µM): 76%
inhibition at 25 µM [2, 9]: 79%
inhibition at 1 µM [7]: 65%
inhibition at 30 µM [3]: 40.6%

C/C=C1/CCC2C3C(CC[C@]12C)[C@@]1(C)CC[C@H](O)CC1[C@@H](O)[C@@H]3O (stereo partly drawn) [Compound 333]
inhibition at 25 µM [6]: 71%
inhibition at 25 µM [2, 9]: 69%
inhibition at 1 µM [7]: 34%
inhibition at 30 µM [3]: 63%
